Laboratory results as given in PubChem BioAssay (NCI).
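Following 48 hours of exposure in 96-well plates, responses at five concentrations were used to interpolate endpoints linearly. Here, GI50 denotes the concentration required for 50% inhibition of growth. TGI marks complete inhibition of growth.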

Assays:
Assay in all cases: NCI tumour cell line growth inhibition, 48 h
T-47D breast = test system: T-47D breast
HL-60(TB) leukemia = test system: HL-60(TB) leukemia
K-562 leukemia = test system: K-562 leukemia
HS 578T breast = test system: HS 578T breast
SK-OV-3 ovarian = test system: SK-OV-3 ovarian
M14 melanoma = test system: M14 melanoma
MCF7 breast = test system: MCF7 breast
COLO 205 colon = test system: COLO 205 colon
NCI-H522 lung = test system: NCI-H522 lung
HT29 colon = test system: HT29 colon

| Compound | GI50 (T-47D breast) [µM] | TGI (T-47D breast) [µM] | GI50 (HL-60(TB) leukemia) [µM] | TGI (HL-60(TB) leukemia) [µM] | GI50 (K-562 leukemia) [µM] | TGI (K-562 leukemia) [µM] | GI50 (HS 578T breast) [µM] | TGI (HS 578T breast) [µM] | GI50 (SK-OV-3 ovarian) [µM] | TGI (SK-OV-3 ovarian) [µM] | GI50 (M14 melanoma) [µM] | TGI (M14 melanoma) [µM] | GI50 (MCF7 breast) [µM] | TGI (MCF7 breast) [µM] | GI50 (COLO 205 colon) [µM] | TGI (COLO 205 colon) [µM] | GI50 (NCI-H522 lung) [µM] | TGI (NCI-H522 lung) [µM] | GI50 (HT29 colon) [µM] | TGI (HT29 colon) [µM] |
| --- | --- | --- | --- | --- | --- | --- | --- | --- | --- | --- | --- | --- | --- | --- | --- | --- | --- | --- | --- | --- |
| Cl.Fc1c[c-]c(-c2ccccn2)c(F)c1.[Pt].c1ccc([PH+](C[PH+](c2ccccc2)c2ccccc2)c2ccccc2)cc1 | 0.135 | 1.02 | 0.233 | 0.67 | 0.0483 | 0.573 | 0.312 | 1.56 | 0.293 | 0.84 | 0.314 | 1.02 | 0.198 | 1.12 |  |  |  |  |  |  |
| CC(=O)/C=C/c1ccc(OCc2ccc(Cl)cc2)cc1 | 182 | > 1000 | 405 | > 1000 |  |  | > 1000 | > 1000 | > 1000 | > 1000 | 559 | > 1000 | 644 | > 1000 | 287 | > 1000 | 295 | > 1000 | > 1000 | > 1000 |
| O=C(O)c1c(Br)c(Br)c(Br)c(Br)c1C1c2ccc(O)cc2Oc2cc(O)ccc21 |  | > 100 |  | 30.1 |  | > 100 |  | > 100 |  | > 100 |  | > 100 |  | > 100 |  | > 100 |  | > 100 |  | > 100 |
| COC(=O)[C@H](Cc1cn(C)cn1)NC(=O)[C@H](C)NC(=O)Nc1cc(C(F)(F)F)cc(C(F)(F)F)c1 | 7.58 | > 10 | > 10 | > 10 | > 10 | > 10 | > 10 | > 10 | > 10 | > 10 | > 10 | > 10 | > 10 | > 10 | > 10 | > 10 | > 10 | > 10 | > 10 | > 10 |
| Cn1cc(C2=C(Nc3ccccc3)C(=O)NC2=O)c2ccccc21 | 16.2 | > 25 | > 25 | > 25 | > 25 | > 25 | > 25 | > 25 | > 25 | > 25 | > 25 | > 25 | > 25 | > 25 | > 25 | > 25 | 24.6 | > 25 | 14.7 | > 25 |
| Cc1cc(O)c(C2=NN(c3ccc(S(N)(=O)=O)cc3)C(/C=C/c3ccccc3)C2)cc1Cl (stereo not drawn) | 3.38 | 14.7 | 68.3 | > 100 | 11.6 | 87.5 | 12.3 | 49.7 | 5.52 | 17.9 | 6.16 | 19.3 | 3.93 | 16.1 | 10.4 | 22.1 | 4.62 | 19.4 | 3.73 | 14.7 |
| N#CC(C#N)=C/C=C(\Sc1ccc(F)cc1Cl)c1ccc(Cl)cc1 | 0.659 | 5.19 | 0.52 | 49.2 | 0.432 | > 100 | 1.53 | 28.2 | 2.8 | 23.4 | 0.433 | 2.03 | 0.417 | 2.55 | 0.515 | 5.02 | 1.93 | 10.8 |  |  |
| CC1OC(CC(=O)O)CC2=C1C(=O)c1c(O)cccc1C2=O (stereo not drawn) |  | 4.4 |  | 0.0582 |  | 0.36 |  | 0.452 |  | 12.7 |  | 0.389 |  | 0.368 |  | 0.169 |  | < 0.0251 |  | 0.427 |
| Cc1ccc(-n2nnnc2-c2cnc(N3CCOCC3)nc2-c2cccc(C(F)(F)F)c2)cc1 | 2.31 | > 15.6 | 2.34 | 17.5 | 1.96 | > 22.6 | 1.27 | > 13.8 | 1.48 | > 13.3 | 1.08 | 2.69 | 1.32 | > 32.8 | 1.81 | > 13.5 | 1.89 | > 12.9 | 1.53 | > 18.4 |
| O=C(CCCN1CCC(C(O)c2ccc(F)cc2)CC1)c1ccc(F)cc1 (stereo not drawn) |  | 137 |  | 120 |  | 154 |  | 116 |  | 138 |  | 109 |  | 122 |  | 110 |  | 139 |  | 92.7 |
| COC(=O)C(C(=O)OC)C(Br)C(Br)C(Br)c1ccccc1 (stereo not drawn) | 2.03 | 4.92 | 2.59 | 6.47 |  |  | 18.4 | 62.8 | 23.6 | 72.3 | 12.9 | 27.5 | 2.43 | 9.68 | 2.14 | 4.62 | 1.69 | 3.33 | 5.68 | 21.8 |
| COc1cc(Cl)cc(-c2nn(-c3cccc(NC(=O)Nc4ccc(Cl)c(Cl)c4)c3)cc2-c2ccncc2)c1 | 2.78 | 18.9 | 2.19 | 5.68 | 1.96 | > 100 | 3.89 | > 100 | 3.6 | 87 | 2.52 | 10.9 | 2.56 | 13.2 | 1.71 | 3.31 | 1.29 | 4.48 | 2.38 | 9.07 |
| CC1(C)O[C@@H]2C[C@H]3[C@@H]4C[C@H](F)C5=CC(=O)C=C[C@]5(C)[C@@]4(F)[C@@H](O)C[C@]3(C)[C@]2(C(=O)CO)O1 |  | > 100 |  | > 100 |  | > 100 |  | > 100 |  | > 100 |  | > 100 |  | > 100 |  | > 100 |  | > 100 |  | > 100 |
| COC1CC(N)C(O)C(C)O1 (stereo not drawn) |  | > 100 |  | > 100 |  | > 100 |  | > 100 |  | > 100 |  | > 100 |  | > 100 |  | > 100 |  | > 100 |  | > 100 |
| CC(C)(C)N/N=C(\C(=O)NC1=C(Cl)C(=O)c2ccccc2C1=O)C1C=CCS1(=O)=O (stereo not drawn) |  | 37.8 |  | > 100 |  | > 100 |  | 64.8 |  | > 100 |  | 23.7 |  | 29 |  | 30.2 |  | 25.5 |  | 29.3 |
